Experimental data taken from paper PMC11794677, “Self‐Assembly of a Conjugate of Lipoic Acid With a Collagen‐Stimulating Pentapeptide Showing Cytocompatibility and Wound Healing Properties, and Chemical and Photolytic Disassembly” (Journal of Peptide Science, 2025).

How the values were obtained:
melanin synthesis = settings: cited from earlier work
Source text: (§1) Here, we investigate the structural properties, biocompatibility and collagen‐stimulating activity of a novel peptide amphiphile comprising a conjugate of lipoic acid to pentapeptide KTTKS, termed lipoyl‐KTTKS (Scheme 1).

tyrosinase = settings: cited from earlier work
Source text: as §1

[1] = cited from earlier work
Source text: as §1

[2] = test system: UV-induced collagenase (MMP-1); settings: cited from earlier work
Source text: as §1

[3] = SANS form factor fits (core-shell cylinder); assay type: physicochemical; settings: 3 wt% in D2O, 25°C, long cylindrical shell form factor; also: values in Å
Method: Measurements were performed using the LOQ instrument at ISIS Neutron and Muon Source, Oxfordshire, UK. LOQ operates in time‐of‐flight mode, with a wavelength range from 2.7 to 10.5 Å. Two detectors recorded simultaneously small and wide scattering merged in a typical range of wavenumbers q = 0.006 Å^−1 to 1.2 Å^−1. The main detector was fixed at 4 m from the sample, and the size of the beam was 8 mm diameter at the sample position. The samples were placed in quartz cuvettes and arranged on a multislot sample changer with temperature controlled by a thermal bath at 25°C. The background was subtracted and the scattering intensity normalized to the absolute scale cross calibrating with a polystyrene standard. Data reduction was performed using Mantid.
Cryo‐TEM was used to probe potential aggregation in solution above the CAC (3 wt% aqueous solution). […] The presence of such structures was also confirmed by SAXS and SANS data (Figure 3), which reveal form factor features that can be fitted using a core‐shell cylinder form factor, consistent with extended fibril structures. The cylinder radius is 25 Å, which is approximately equal to the estimated length of the molecule considering the lipid chain plus a pentapeptide in a β‐sheet conformation. […]

[4] = UV exposure / photodegradation, UV-vis absorbance at 333 nm; assay type: physicochemical; settings: UV lamp 365 nm for 1 h, 0.1 wt% solution, read 24 h after irradiation
Method: To investigate the effect of UV exposure on lipoyl‐KTTKS the peptide powder was irradiated using a 4W UVGL‐25 lamp (Analytik Jena, Germany) at a wavelength of 365 nm for 1 h. The absorbance was tracked at 333 nm before, just after exposure and 24 h after exposure using a nanodrop spectrometer (Thermo‐Fisher Scientific). The full spectra were also collected using a Varian Cary Bio 300 UV‐vis (Cary).
Lipoic acid is susceptible to photolysis upon exposure to UV light. Photodegradation of lipoyl‐KTTKS was studied via UV‐vis, FTIR and CD spectroscopy and degradation products were analysed by electrospray ionisation‐mass spectroscopy (ESI‐MS). Photolysis was induced by exposure to UV for 1 h using a UV lamp with 365‐nm radiation. Lipoic acid presents a characteristic weak band at 333 nm that is related to the hindered dithiolane ring, that can be broken by UV irradiation. The absorbance of lipoyl‐KTTKS (0.1 wt% solution) before irradiation, just after and 24 h after irradiation to evaluate the recovery of the dithiolane ring is shown in Figure 5. […] The UV exposure disrupts the dithiolane ring, as reflected also in the FTIR spectrum (Figure S2), with the suppression of bands ν(S‐S) at 519 and 438 cm^−1 and ν(C‐S) at 721 cm^−1 [48, 49].

[5] = test system: type I/III collagen production by HDFa cells; test: Collagen quantification, picrosirius red (Direct red 80) staining; assay type: cell-based, Human; settings: 72 h incubation, different concentrations, absorbance 490 nm, ANOVA, n = 3
Method: To quantify collagen production, HDFa cells were seeded at a confluency of 1 × 10^4 cells/well into 96‐well plates in DMEM/F12 + 5 μg/mL of insulin and incubated for 3 days in DMEM/F12 without supplements as control, or DMEM/F12 + different concentrations of lipoyl‐KTTKS and conventional supplements (ascorbic acid 1 mM, TGFβ1 0.025 ng/mL and insulin 10 μg/mL). After incubation, the cells were washed three times with PBS and were fixed with cold ethanol 70%. The plate was transferred to a −80°C ultra‐freezer for 10 min and washed with water to remove any residual ethanol. After fixation, the collagen was incubated overnight in a solution containing Direct red 1 mg/mL in picric acid at 4°C. After this final incubation, the fixed cells were washed with distilled water to remove any residual dye, and the collagen and cells were then treated with 1‐mM NaOH for 10 min at room temperature. The resulting absorbance was measured at 490 nm using an Infinite F50 microplate reader (TECAN, Switzerland).
Because of the great commercial interest in KTTKS pentapeptides in cosmetic products with proposed antiaging properties resulting from cellular matrix stimulation, collagen production assays were performed using the technique of picrosirius red (commercial name, Direct red 80) staining (UV/vis absorbance) measurements.

L length [3]: 800 Å
t shell thickness [3]: 9.10 Å
Recovery of absorbance at 333 nm (dithiolane ring) after UV exposure [4]: incomplete recovery
Substance: lipoyl‐KTTKS [peptide amphiphile comprising a conjugate of lipoic acid to pentapeptide KTTKS]
Effect on melanin synthesis (melanin synthesis): inhibits
Effect on tyrosinase activity (tyrosinase): inhibits
Cytocompatibility [1]: good cytocompatibility
Effect on UV-induced collagenase (MMP-1) activity [2]: inhibits
Collagen production compared with the control or conventional stimulants [5]: no statistically significant increase
